Results: patent publication US9873705B2, “Vinylogous thioester compounds and methods of use” (THE TRUSTEES OF DARTMOUTH COLLEGE, priority 2015, dated 2018)

Tests used:
[1] = tested on: p62 and LC3B protein expression in U87-MG cells; experiment: Western blot of autophagy markers p62 and LC3B; format: cell-based, human; settings: U87-MG, Western blot, 2 μM Y102, 50 μM HCQ
Excerpt: Ras dysregulated tumors depend on autophagy to remove damaged mitochondria and allow for their survival. […] LC3B I is lipidated to form LC3B II following induction of autophagy. LC3B II is recruited and subsequently integrated into the autophagosome. p62 functions as an adaptor protein in autophagy by binding to both ubiquitin-labeled damaged cargo such as protein aggregates or mitochondria and LC3B II to facilitate cargo uptake into the autophagosome. Degradation of the cargo occurs when the autophagosome fuses with the lysosome; when autophagy is inhibited with hydroxychloroquine (HCQ), a drug that prevents acidification of the lysosome, both LC3B II and p62 accumulate as derogation of the autophagosome is prevented, making them valuable markers of autophagic flux.
The data for FIG. 4 was obtained as follows: U87-MG cells were plated in 6-well plates at a concentration of 500,000 cells/well and allowed to adhere overnight. Cells were treated for 12 h with either DMSO or 2 μM Y102, followed by an additional 12 h co-treatment with or without 50 μM HCQ. Following treatment, cells were harvested using 0.25% trypsin, rinsed with PBS, and lysed with 75 μL modified RIPA buffer (50 mM NaCl, 1% v/v nonidet P40, 0.5% w/v sodium deoxycholate, 0.05% w/v sodium dodecyl sulfate, 50 mM Tris pH 8.0) containing 1 mM NaVO4, 1 mM NaF, 1 mM phenylmethylsulfonyl fluoride, 0.1 μg/mL leupeptin, 100 μM benzamidine HCl, 1 μM aprotinin, 0.1 μg/mL soybean trypsin inhibitor, 0.1 μg/mL pepstatin, and 0.1 μg/mL antipain. Protein was quantified using a BCA assay kit (Pierce). 40 μg of protein prepared in 1× Laemmli sample buffer (50 mM Tris pH 6.8, 0.02% w/v bromophenol blue, 2% w/v sodium dodecyl sulfate, 10% v/v glycerol, 1% v/v beta-mercaptoethanol, 12.5 mM EDTA) was separated on a 4-15% polyacrylamide gel using sodium dodecyl sulfate-polyacrylamide gel electrophoresis. Protein was transferred to nitrocellulose membrane, blocked in 5% nonfat milk in TBST, and probed with primary antibodies anti-LC3BI/II (Cell Signaling, 1:1000, overnight at 4° C.), anti-p62/SQSTM-1 D-3 (Santa Cruz, 1:1000, 1 h at room temperature), or anti-α-tubulin B-1-2-5 (Santa Cruz, 1:10000, 1 h at room temperature) in 2% nonfat milk in TBST. Blots were incubated in 1:20,000 anti-rabbit HRP or 1:10,000 anti-mouse HRP secondary antibodies diluted in 2% nonfat milk in TBST for 1 h at room temperature. Film was exposed to standard ECL (Pierce)-coated blots and developed using a standard film processor.

[2] = tested on: NF1 deficient cells compared to NF1 wild type cells; experiment: Bafilomycin A1 dose response curve; format: cell-based; settings: representative of two replicates
Excerpt: This graph is representative of two replicates.

Row | SMILES | p62 accumulation (autophagy marker) ([1]; 24 hours) | LC3B I/II conversion (LC3B II accumulation) ([1]; single agent) | sensitivity of NF1 deficient vs NF1 wild type cells [2]
1 | CCN(CCO)CCCC(C)Nc1ccnc2cc(Cl)ccc12 (stereo not drawn) [HCQ, hydroxychloroquine, reference compound] | accumulation of p62 | LC3B I/II conversion as seen | 
2 | CO/C1=C\C(C)=C\[C@@H](C)[C@@H](O)[C@@H](C)C/C(C)=C/C=C/[C@H](OC)[C@@H]([C@@H](C)[C@@H](O)[C@H](C)[C@@]2(O)C[C@@H](O)[C@H](C)[C@@H](C(C)C)O2)OC1=O [Bafilomycin A1] |  |  | selectively sensitive
